US8921516B2, “Synthetic, defined fibronectin mimetic peptides and surfaces modified with the same” (Corning Incorporated, priority 2010, dated 2014)

How the values were obtained:
[1] = system: A-172 human glioblastoma cancer cells; test: A-172 cell attachment to peptide coated surfaces (images and MTS assay); assay type: cell-based; conditions: A-172 cells, images and MTS assay (FIG. 4A and FIG. 4B); compared with BD BioCoat fibronectin surface
Protocol: FIG. 4A is an image of A-172 human glioblastoma cancer cells attached to a surface that has a coating thereon of […] (SEQ ID NO: 8) referred to therein as “DA2”, […] (SEQ ID NO: 9) referred to therein as “DA4”, […] (SEQ ID NO: 10) referred to therein as “DA1”, […] (SEQ ID NO: 11) referred to therein as “DA3”.
To explore the ability of a surface modified by the compound of the present invention to mimic one or more functional characteristics of a fibronectin coated surface, cells were seeded and monitored on both such surfaces under the same culture conditions. In brief, LNCaP cells, MIA-PaCa-2, A-172, or RKO cells from ATCC were cultured according to supplier's instructions. LNCaP were cultured in RPMI-1640 Medium (ATCC Catalog No. 30-2001) supplemented with 10% fetal bovine serum. MIA-PaCa-2 and A-172 cells were grown in DMEM (Invitrogen cat #11885-084) supplemented with 10% fetal bovine serum. RKO cells were cultured in EMEM (ATCC cat#30-2003) supplemented with 10% fetal bovine serum. Cells were cultured at 37° C. in a humidified incubator with 5% CO2. For seeding, media was removed, cells were washed with PBS, and 3 ml of 0.25% Trypsin-EDTA was added to the cells in T-75 flask. Flasks were examined under the microscope, once cells detached from the surface, 10 ml culture media was added to neutralize Trypsin. Cells were transferred to a 15 ml. BD Falcon tube and centrifuged at 200×g for 10 min. Supernatant was removed and the cell pellet washed once with DMEM (Invitrogen cat #11885-084) having 200 microgram/ml BSA. Cells were resuspended in DMEM having 200 microgram/ml BSA and seeded at 50,000 cells/cm^2 in 1.0 ml media per well of a 24 well plate. The culture surface was either a surface modified by the compound […] (SEQ ID NO: 7) or BD BioCoat fibronectin which served as a positive control. Additionally, BD tissue culture treated surface served as negative control. Cells were incubated for 24 hr at 37° C. in a humidified incubator with 5% CO2.
In addition to the aforementioned visual analysis, MTS analysis was carried out to quantify the degree of cell attachment. In brief, media was removed by inverting the plate and 300 μl complete media containing MTS (Promega cat #G3582) was added to each well of a 24 well plate. Cells were incubated for 1 hr at 37° C. in a humidified incubator at 5% CO2. Following incubation, 0.1 ml media was transferred to BD Falcon™ 96 well plate and absorbance was measured at 490 nm.

[2] = system: LNCaP cells; test: LNCaP cell attachment and spreading on modified surface, visualized by microscope; assay type: cell-based, human; conditions: 24 hr post-seeding, microscope images (FIG. 1), surface modified by compound vs BD BioCoat fibronectin
Protocol: (§1) To explore the ability of a surface modified by the compound of the present invention to mimic one or more functional characteristics of a fibronectin coated surface, cells were seeded and monitored on both such surfaces under the same culture conditions. In brief, LNCaP cells, MIA-PaCa-2, A-172, or RKO cells from ATCC were cultured according to supplier's instructions. LNCaP were cultured in RPMI-1640 Medium (ATCC Catalog No. 30-2001) supplemented with 10% fetal bovine serum. MIA-PaCa-2 and A-172 cells were grown in DMEM (Invitrogen cat #11885-084) supplemented with 10% fetal bovine serum. RKO cells were cultured in EMEM (ATCC cat#30-2003) supplemented with 10% fetal bovine serum. Cells were cultured at 37° C. in a humidified incubator with 5% CO2. For seeding, media was removed, cells were washed with PBS, and 3 ml of 0.25% Trypsin-EDTA was added to the cells in T-75 flask. Flasks were examined under the microscope, once cells detached from the surface, 10 ml culture media was added to neutralize Trypsin. Cells were transferred to a 15 ml. BD Falcon tube and centrifuged at 200×g for 10 min. Supernatant was removed and the cell pellet washed once with DMEM (Invitrogen cat #11885-084) having 200 microgram/ml BSA. Cells were resuspended in DMEM having 200 microgram/ml BSA and seeded at 50,000 cells/cm^2 in 1.0 ml media per well of a 24 well plate. […]

[3] = system: LNCaP cells; test: MTS assay quantification of LNCaP cell attachment; assay type: cell-based, human; conditions: 24 hr post-seeding, FIG. 2, treated surface vs BD BioCoat fibronectin
Protocol: as §1, with “min.” for “min. Supernatant was removed and the cell pellet washed once with DMEM (Invitrogen cat #11885-084) having 200 microgram/ml BSA. Cells were resuspended in DMEM having 200 microgram/ml BSA and seeded at 50,000 cells/cm^2 in 1.0 ml media per well of a 24 well plate.”
In addition to the aforementioned visual analysis, MTS analysis was carried out to quantify the degree of cell attachment. […] Following incubation, 0.1 ml media was transferred to BD Falcon™ 96 well plate and absorbance was measured at 490 nm.

[4] = system: A-172 cells; test: Confluence quantification by IncuCyte of A-172 cell attachment; assay type: cell-based, human; conditions: FIG. 3, treated surface vs BD BioCoat fibronectin
Protocol: as §1

[5] = system: RKO cells; test: Confluence quantification by IncuCyte of RKO cell attachment; assay type: cell-based, human; conditions: FIG. 3, treated surface vs BD BioCoat fibronectin
Protocol: as §1

Sequence	cell attachment and spreading [1]	further results
KSGRPREDRVPHSRNSITLTNSGTGSGTGSGRGDSP (two regions of a fibronectin cell-binding domain joined by a flexible linker) [SEQ ID NO: 8]	supported cell attachment and spreading similar to a BD BioCoat fibronectin surface	–
KSGRARADRVPHSRNTITLTNGGSGGSGGSGRGDSP (two regions of a fibronectin cell-binding domain joined by a flexible linker) [SEQ ID NO: 11]	supported cell attachment and spreading similar to a BD BioCoat fibronectin surface	–
KSGRPREDRVPHSRNSITLTNGGGSGGGSGGGRGDSP (two regions of a fibronectin cell-binding domain joined by a flexible linker) [SEQ ID NO: 9]	supported cell attachment and spreading similar to a BD BioCoat fibronectin surface	–
KSGRARADRVPHSRNTITLTNSGSGSGSGSGRGDSP (two regions of a fibronectin cell-binding domain joined by a flexible linker) [SEQ ID NO: 10]	supported cell attachment and spreading similar to a BD BioCoat fibronectin surface	–
KSGRPREDRVPHSRNSITLTNSGSGSGSGSGRGDSP (two regions of a fibronectin cell-binding domain joined by a flexible linker) [SEQ ID NO: 7]	supported cell attachment and spreading similar to a BD BioCoat fibronectin surface	cell attachment and spreading [2]: comparable; LNCaP cell attachment (MTS assay, absorbance at 490 nm) [3]: comparable; confluence quantification by IncuCyte [4]: comparable; confluence quantification by IncuCyte [5]: comparable
KSGRGRGDRVPHSRNGITLTNSGSGSGSGSGRGDSP (two regions of a fibronectin cell-binding domain joined by a flexible linker) [SEQ ID NO: 12]	supported cell attachment and spreading similar to a BD BioCoat fibronectin surface	–
